In brackets after ≈: the same amount, converted by molar mass.
What was measured:
Assay type in all cases: functional
[1] = system: P388; experiment: Antileukemic activity against mouse P388 cells xenografted in mouse at 1 mg/kg dosed for 3 days relative to control
[2] = system: KB; experiment: Cytotoxicity against human KB cells; settings: read-out: ED50 (the source's name)
[3] = system: P388; experiment: Antileukemic activity against mouse P388 cells xenografted in mouse at 200 mg/kg dosed for 1 day relative to control

SMILES | T/C [1] [%] | EC50 [2] [µg/mL] | T/C [3] [%]
CCC[C@@H](O)/C=C/C=C/C=C/C#CC#CCCCO [CICUTOXIN] | 165 | 2 (≈ 7.74 µM) | –
CCCC(=O)/C=C/C=C/C=C/C#CC#CCCCO | – | > 4 | –
O=c1[nH]cc(F)c(=O)[nH]1 [FLUOROURACIL] | – | – | 135
CCCC(O)/C=C/C=C/C=C/C#CC#CCCCOC(=O)c1ccccc1 (centres undefined) | – | > 4 | –
CCCC(/C=C/C=C/C=C/C#CC#CCCCOCOCCOC)OCOCCOC (centres undefined) | – | > 4 | –
CCCC(O)CCCCCCCCCCCCCO (centres undefined) | – | > 4 | –
CCCC(/C=C/C=C/C=C/C#CC#CCCCOCOCc1ccccc1)OCOCc1ccccc1 (centres undefined) | – | > 4 | –
CCCC(/C=C/C=C/C=C/C#CC#CCCCOC(C)=O)OC(C)=O (centres undefined) | – | > 4 | –
